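Grown in 96-well plates, cells were treated for 48 hours with each compound at five concentrations. Insufficient inhibition: endpoint recorded as highest concentration tested. Here, GI50 denotes the concentration required for 50% inhibition of growth. TGI is the concentration that stops growth completely.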
Columns and labels:
Assay in all cases: NCI tumour cell line growth inhibition, 48 h
U251 CNS = system: U251 CNS
SNB-19 CNS = system: SNB-19 CNS
SR leukemia = system: SR leukemia
SK-MEL-5 melanoma = system: SK-MEL-5 melanoma
HL-60(TB) leukemia = system: HL-60(TB) leukemia
SF-295 CNS = system: SF-295 CNS
A498 renal = system: A498 renal
OVCAR-5 ovarian = system: OVCAR-5 ovarian
NCI/ADR-RES ovarian = system: NCI/ADR-RES ovarian
SNB-75 CNS = system: SNB-75 CNS

| Structure (SMILES) | TGI (U251 CNS) [µM] | TGI (SNB-19 CNS) [µM] | TGI (SR leukemia) [µM] | TGI (SK-MEL-5 melanoma) [µM] | TGI (HL-60(TB) leukemia) [µM] | TGI (SF-295 CNS) [µM] | TGI (A498 renal) [µM] | TGI (OVCAR-5 ovarian) [µM] | TGI (NCI/ADR-RES ovarian) [µM] | TGI (SNB-75 CNS) [µM] | GI50 (U251 CNS) [µM] | GI50 (SNB-19 CNS) [µM] | GI50 (SK-MEL-5 melanoma) [µM] | GI50 (HL-60(TB) leukemia) [µM] | GI50 (SF-295 CNS) [µM] | GI50 (A498 renal) [µM] | GI50 (SNB-75 CNS) [µM] | GI50 (OVCAR-5 ovarian) [µM] | GI50 (NCI/ADR-RES ovarian) [µM] | GI50 (SR leukemia) [µM] |
| --- | --- | --- | --- | --- | --- | --- | --- | --- | --- | --- | --- | --- | --- | --- | --- | --- | --- | --- | --- | --- |
| O=C(CC(=O)c1cccc([N+](=O)[O-])c1)C(=O)Nc1nc([N+](=O)[O-])cs1 | > 100 | > 100 | > 100 | > 100 | > 100 | > 100 | > 100 | > 100 |  |  |  |  |  |  |  |  |  |  |  |  |
| Cc1ccc(C)c(N2C(=O)C(=O)c3c(C)ccc(C)c32)c1 | 35.2 | > 100 | 37.7 | 41.2 | > 100 | 54.8 |  | > 100 | 62.9 | > 100 |  |  |  |  |  |  |  |  |  |  |
| Cc1cc(O)c(O)c(Oc2cc(C)cc(O)c2O)c1 | > 100 | > 100 | 43.5 | > 100 | 5.54 | 55.7 | > 100 | > 100 |  | > 100 |  |  |  |  |  |  |  |  |  |  |
| CCC[CH2][Ge]([CH2]CCC)([CH2]CCC)[O]C(=O)C(OC(C)=O)c1ccccc1 (stereo not drawn) | 20.2 | 36.9 |  | 11.6 | 2.09 | 23.3 | 24.3 | 17.5 |  | 25.2 | 1.19 | 12 | 0.774 | 0.314 | 4.02 | 11.4 | 0.973 | 3.36 |  |  |
| O=C(OC(CNc1c(C(=O)c2ccccc2)c(=O)n(Cc2ccccc2)c(=O)n1Cc1ccccc1)CN1CCCCC1)c1ccccc1 (stereo not drawn) | 29 | 83.5 |  | 42.5 | 33.8 | 42.5 | 76.5 | 63.4 | 34.5 |  | 15.2 | 30.4 | 18.2 | 14.8 | 22.1 | 32.3 |  | 24.7 | 17.6 |  |
| N#Cc1nc(Nc2ccc(Cl)cc2)sc1N | 34.1 | > 100 | 11.6 | 6.41 | > 76.7 | 42 | 56 | > 46.4 |  | > 71.1 |  |  |  |  |  |  |  |  |  |  |
| O=C1C2C3CCC(C2C(=O)N1CO)C1C2C(=O)N(CO)C(=O)C2C31 (stereo not drawn) | > 56.2 | > 100 | 36.7 | 98.9 | 31.1 | > 100 | > 100 | > 100 |  | > 100 |  |  |  |  |  |  |  |  |  |  |
| CCc1cccc(CC)c1NC(=O)c1ccn2c1CCc1cnc(Nc3ccc(N4CCN(C)CC4)cc3OC)nc1-2 | 5.99 | 15.2 |  | 3.02 |  | 3.73 | 23.5 | 22 | > 100 | 7.47 | 1.84 | 3.57 | 1.61 |  | 1.62 | 10.9 | 1.87 | 3.51 | 1.33 |  |
| Cc1nn(-c2ccccc2)c(C)c1/C=N/N1CCN(Cc2ccccc2)CC1 | > 100 | > 100 | 35.1 | 36.7 | 63 | > 100 |  | > 100 | > 100 | > 100 | 67.5 | > 100 | 18.7 | 28.7 | > 100 |  | 99 | > 100 | 50.3 | 13.8 |
| CC1=C2[C@@H](c3ccccc3)C3C=CC2(c2ccccc23)N(C(=O)Nc2cccc3ccccc23)C1=O (stereo partly drawn) | > 100 | > 100 | > 100 | > 100 | > 100 | > 100 | > 100 | > 100 |  |  |  |  |  |  |  |  |  |  |  |  |
| N#CC(C#N)=Cc1ccc(Oc2ccccc2)cc1 | > 57 | > 100 | > 100 | 64.7 | 55.1 | 59.2 | > 100 | > 100 |  | > 91.7 |  |  |  |  |  |  |  |  |  |  |
| C=CCCC(O)c1ccc(CCCCCCCCCCC)o1 (stereo not drawn) | 31.5 | 35 |  | 31.5 | > 100 | 30.4 |  | 35.9 | 35.5 | 28.6 | 17.5 | 18.8 | 17 | 39.2 | 14.2 |  | 14.2 | 18.3 | 18.9 |  |
| O=C1C(Cl)=C(Nc2cccc(O)c2)C(=O)N1c1ccc(Cl)cc1Cl | 66.7 | > 100 | 26.9 | 32.2 |  | 86 |  | > 100 | > 100 |  | 19 | 29.9 | 14.7 |  | 27.2 |  |  | 40.2 | 32.2 | 2.76 |
| COc1ccc(C(=O)c2cc(OC)c(OC)c(OC)c2)cc1/C=C/C(=O)c1ccc2c(c1)OCO2 |  |  |  |  | > 100 | 17.2 | 16.7 | 8.19 | 15.2 | 15.6 |  |  |  | 2.16 | 3.43 | 2.43 | 3.11 | 2.64 | 1.46 |  |
| CCCCCCCCCCCCCC(=O)OC1C(CO)OC(=O)C1O (stereo not drawn) | > 100 | > 100 |  | > 100 | > 100 | > 100 | > 100 | > 100 |  | > 100 |  |  |  |  |  |  |  |  |  |  |
| N=C(N)c1ccc(-c2ccc(-c3ccc(Cl)c(Cl)c3)o2)nc1 |  | 3.7 | > 100 | 3.15 | 5.09 |  | 28.5 | 3.01 |  | 2.69 |  | 1.84 | 1.74 | 2.24 |  | 9.98 | 1.35 | 1.57 |  | 0.559 |
| Cc1cn2c(/C=N/N=C(N)N)c(-c3cc(Cl)sc3Cl)nc2s1 |  | > 50 |  | 1.74 |  |  |  | 1.59 | 13.3 |  |  | 1.84 | 0.905 |  |  |  |  | 0.886 | 5.57 |  |
| C[CH2][Sn]([Cl])([CH2]C)[CH2]C | 2.97 | 10.6 | 5.01 | 2.26 |  | 3.92 |  | 8.33 |  | 0.549 | 0.771 | 1.97 | 0.761 |  | 1.41 |  | 0.255 | 3.33 |  | 0.481 |

From PubChem BioAssay (NCI)
